Consider 11 molecules from patent US6716850B2, “Non-nucleoside reverse transcriptase inhibitors” (Medivir AB, priority 2001, dated 2004).

For one assay, the system named is HIV-1IIIB (wild type). The experiment in a line: XTT assay in MT-4 cells infected with wild type HIV-1IIIB. It counts as cell-based. On the procedure:
Compounds of the invention are assayed for HIV activity, for example using multiple determinations with XTT in MT-4 cells (Weislow et al, J Nat Cancer Inst 1989, vol 81 no 8, 577 et seq), preferably including determinations in the presence of 40-50% human serum to indicate the contribution of protein binding. In short the XTT assay uses human T cell line MT4 cells grown in RPMI 1640 medium supplemented with 10% fetal calf serum (or 40-50% human serum as appropriate), penicillin and streptomycin seeded into 96 well microplates (2·10^4 cells/well) infected with 10-20 TCID50 per well of HIV-1IIIB (wild type) or mutant virus, such as those bearing RT lie 100, Cys 181 or Asn 103 mutations. Serially diluted test compounds are added to respective wells and the culture incubated at 37° C. in a CO2 enriched atmosphere and the viability of cells is determined at day five or six with XTT vital dye. Results are typically presented as ED50 μM.

Assay [1] has as its target T1, HIV-1 reverse transcriptase (Human immunodeficiency virus type 1 group M subtype B, UniProt P04585).
T1 construct: active against reverse transcriptase, especially that of HIV-1
Description: activity of separated optical isomers (test not stated). The conditions noted are these: second eluting peak on chiral AGP column.

[2] abbreviates: XTT assay, MT-4 cells, wild type HIV-1IIIB, read-out: ED50 (the source's name).
Setting [3] is: Human immunodeficiency virus 1, MT4, read-out: ED50.

Read-outs that look alike come from different tables or passages of the source.

Turning to `N#Cc1ccc(NC(=O)NC2C3COc4c(Cl)ccc(F)c4C32)nc1` (racemic) [Example 7, (±)-cis-1-(5-Cyano-pyridin-2-yl)-3-(7-fluoro-4-chloro-1,1a,2,7b-tetrahydro-cyclopropa[c]chromen-1-yl)-urea], the EC50 in the assay on HIV-1IIIB (wild type) (setting [2]) was found to be 7 nM.
As for `N#Cc1ccc(NC(=O)NC2C3Sc4ccccc4C23)nc1` (racemic) [Example 43, (+/−)cis N-[1a,6b-dihydro-1H-benzo[b]cyclopropa[d]thien-1-yl]-N′-(5-cyano-2-pyridinyl)-urea], the EC50 in the assay on HIV-1IIIB (wild type) (setting [3]) was 2 nM.
Regarding `O=C(Nc1ccc(Oc2ccccc2)cn1)N[C@@H]1[C@@H]2COc3c(F)ccc(F)c3[C@@H]21` (relative stereo) [Example 20, +/−cis-1-(4,7-Difluoro-1,1a,2,7b-tetrahydro-cyclopropa[c]chromen-1-yl)-3-(5-phenoxy-pyridin-2-yl)-urea], the EC50 in the assay with HIV-1IIIB (wild type) (setting [2]) is 7 nM.
In the case of `N#Cc1ccc(NC(=O)N[C@@H]2[C@@H]3COc4cc(F)cc(F)c4[C@@H]32)nc1` (relative stereo) [Example 23, 1-(5-Cyano-pyridin-2-yl)-3-(5,7-difluoro-1,1a,2,7b-tetrahydro-cyclopropa[c]chromen-1-yl)urea], in the assay with HIV-1IIIB (wild type) (setting [3]), the EC50 is 7 nM.
Regarding `O=C(Nc1ccc(Cl)cn1)N[C@H]1C2c3c(F)ccc(F)c3OC[C@H]21` (single isomer, unassigned; (-)) [Example 31, (−) cis-1-(5-Chloro-pyridin-2-yl)-3-(4,7-difluoro-1,1a,2,7b-tetrahydro-cyclopropa[c]chromen-1-yl)-urea], the “activity of the more slowly eluting isomer, typically negative rotation” value in assay [1] is “particularly active”. In addition, the EC50 in the assay with HIV-1IIIB (wild type) (setting [3]) is 2.5 nM.
For `N#Cc1ccc(NC(=O)N[C@@H]2[C@@H]3COc4c(Br)ccc(F)c4[C@@H]32)nc1` [Example 24, cis-1-(4-Bromo-7-fluoro-1,1a,2,7b-tetrahydro-cyclopropa[c]chromen-1-yl)-3-(5-cyano-pyridin-2-yl)-urea], the EC50 in the assay with HIV-1IIIB (wild type) (setting [3]) was 20 nM.
For `N#Cc1ccc(NC(=O)N[C@@H]2[C@@H]3COc4c(F)ccc(F)c4[C@@H]32)nc1` [Example 30, (−)-cis-1-(5-Cyano-pyridin-2-yl)-3-(4,7-difluoro-1,1a,2,7b-tetrahydro-cyclopropa[c]chromen-1-yl)-urea], in assay [1], the “activity of the more slowly eluting isomer, typically negative rotation” value was “particularly active”. Further, in the assay with HIV-1IIIB (wild type) (setting [3]), the EC50 was 3 nM.
With `N#Cc1ccc(NC(=O)N[C@@H]2[C@@H]3COc4c(Cl)ccc(Cl)c4[C@@H]32)nc1` [Example 33, +/−-cis-N-(5-cyano-2-pyridinyl)-N′-(4,7-dichloro-1,1a,2,7b-tetrahydrocyclopropa[c]chromen-1-yl)urea], in the assay on HIV-1IIIB (wild type) (setting [3]), the EC50 came to 9 nM.
For “(+/−)-cis-1-(4,7-Difluoro-1,1a,2,7b-tetrahydro-cyclopropa[c]chromen-1-yl)-3-(5-ethynyl-pyridin-2-yl)-urea [Example 18]”, the EC50 in the assay on HIV-1IIIB (wild type) (setting [2]) is 6 nM.
Consider “(+/−)-cis-1-(5-Bromo-pyridin-2-yl)-3-(4,7-difluoro-1,1a,2,7b-tetrahydro-cyclopropa[c]chromen-1-yl)-urea [Example 19]”, for which the EC50 in the assay with HIV-1IIIB (wild type) (setting [2]) turned out to be 10 nM.
Consider “(+/−)-cis-1-(5-Cyano-3-methyl-pyridin-2-yl)-3-(4,7-difluoro-1,1a,2,7b-tetrahydro-cyclopropa[c]chromen-1-yl)-urea [Example 16]”, for which, in the assay with HIV-1IIIB (wild type) (setting [2]), the EC50 stood at 6 nM.
